Assay results as given in patent US20030212006A1, “Method for reducing free radical formation in healthy individuals undergoing hypoxic exercise and medical conditions with increased oxygen free radicals” (priority 2002, published 2003).

Experiments:
Assay type in all cases: in vivo, human
[1] = Urinary MDA after a single cycling bout under hypoxic conditions (16% oxygen), crossover trial; conditions: 7 grams ribose in 250 mL water before and after exercise; compared to the placebo; n=7 subjects; p=0.01
Description: (§1) Seven healthy, moderately to highly conditioned subjects volunteered to participate in this randomized, blinded, crossover trial. All subjects were between the ages of 23 and 41 years of age, and each subject cycled in two distinct trial arms, a ribose phase and a control phase. One week separated each trial arm. Subjects ingested either 7 grams of ribose in 250 mL of water or just plain water, five minutes prior to the start of exercise and again within five minutes following exercise. The scheduled exercise was 25 minutes of cycling at a workload relating to the lactic acid threshold. Subjects inhaled a hypoxic gas mixture of 16% oxygen and 84% nitrogen through a one-way breathing valve during the exercise bout. Following the cycling exercise, subjects sat quietly for 60 minutes and breathed room air during the recovery phase. All tests were conducted at room temperature. […] A whole blood sample was analyzed for hemoglobin. […] Each frozen plasma sample was analyzed for total protein and uric acid levels. Plasma samples were also analyzed for reduced glutathione levels (GSH kit, Oxis Research, Portland, Oreg.) and volumes were corrected for potential fluid loss by measuring total protein values. The frozen urine samples were analyzed for MDA (MDA kit, Oxis Research, Portland, Oreg.). […]

[2] = Reduced plasma glutathione (GSH) after a single cycling bout under hypoxic conditions; conditions: 7 grams ribose before and after exercise; n=7 subjects; p=0.000
Description: as §1

[3] = Heart rate during a cycling bout under hypoxic conditions; conditions: n=7 subjects
Description: Seven healthy, moderately to highly conditioned subjects volunteered to participate in this randomized, blinded, crossover trial. All subjects were between the ages of 23 and 41 years of age, and each subject cycled in two distinct trial arms, a ribose phase and a control phase. One week separated each trial arm. Subjects ingested either 7 grams of ribose in 250 mL of water or just plain water, five minutes prior to the start of exercise and again within five minutes following exercise. The scheduled exercise was 25 minutes of cycling at a workload relating to the lactic acid threshold. Subjects inhaled a hypoxic gas mixture of 16% oxygen and 84% nitrogen through a one-way breathing valve during the exercise bout. Following the cycling exercise, subjects sat quietly for 60 minutes and breathed room air during the recovery phase. All tests were conducted at room temperature. The cardiovascular parameters of heart rate and oxygen pulse saturation (SpO2) were collected at 9 minutes, 17 minutes, and 25 minutes of exercise. Oxygen pulse saturation was collected with a Nonin pulse oximeter (Nonin Medical Inc., Plymouth, Minn.). […] The 4.8% vs. 7.5% represents heart rates of 175 beats per minute (bpm) and 181 bpm for ribose and placebo (n=7 subjects).

[4] = Subjective ranking of exercise and recovery by blinded subjects
Description: Seven healthy, moderately to highly conditioned subjects volunteered to participate in this randomized, blinded, crossover trial. All subjects were between the ages of 23 and 41 years of age, and each subject cycled in two distinct trial arms, a ribose phase and a control phase. One week separated each trial arm. Subjects ingested either 7 grams of ribose in 250 mL of water or just plain water, five minutes prior to the start of exercise and again within five minutes following exercise. The scheduled exercise was 25 minutes of cycling at a workload relating to the lactic acid threshold. Subjects inhaled a hypoxic gas mixture of 16% oxygen and 84% nitrogen through a one-way breathing valve during the exercise bout. Following the cycling exercise, subjects sat quietly for 60 minutes and breathed room air during the recovery phase. All tests were conducted at room temperature. […] During the control trial, subjects expressed strong desires to take a nap during the recovery period. Additionally, four of the subjects reported that after leaving the laboratory, they went home and took long (>2 hours) naps.

Which “Percent change in urine MDA” value [1] does the source give for `O=C[C@H](O)[C@H](O)[C@H](O)CO` [ribose, D-ribose] here?
The value was “significantly lower”.

And the “Percent change in plasma GSH” value [2]?
The value was “significantly lower”.

And the Heart rate ([3]; during hypoxic exercise, placebo 181 bpm)?
The Heart rate was 175 bpm.

And the “Percent change in heart rate during exercise (in words)” value ([3]; ribose supplementation vs placebo, p=0.03)?
The value was “significantly less”.

What about the “Percent change in heart rate during exercise” value ([3]; ribose supplementation, placebo 7.5%) of the same compound?
Its value is 4.8%.

What about the “Blinded subjects who ranked the exercise easier and felt they had a faster recovery period” value ([4]; after cycling when they ingested ribose) of the same compound?
The value was 6 out of 7.

And the “Comments and symptoms observed during recovery” value ([4]; recovery after hypoxic cycling when ribose was ingested)?
Its value is “decreased lethargy”.
